Results as given in patent US11505547B2, “Compounds” (STEP PHARMA S.A.S., priority 2017, dated 2022).

The molecules below were run against T1, human CTPS1 (Homo sapiens, UniProt P17812) (assay: Human CTPS1 enzyme inhibition, ADP-Glo Max assay). Settings: human full length CTPS1, read-out: CTPS1 (Human CTPS1 Enzyme Inhibition data grouped by potency range, IC50).
T1 construct: purchased Proteros biostructures GmbH
T1 sequence (P17812 1-591): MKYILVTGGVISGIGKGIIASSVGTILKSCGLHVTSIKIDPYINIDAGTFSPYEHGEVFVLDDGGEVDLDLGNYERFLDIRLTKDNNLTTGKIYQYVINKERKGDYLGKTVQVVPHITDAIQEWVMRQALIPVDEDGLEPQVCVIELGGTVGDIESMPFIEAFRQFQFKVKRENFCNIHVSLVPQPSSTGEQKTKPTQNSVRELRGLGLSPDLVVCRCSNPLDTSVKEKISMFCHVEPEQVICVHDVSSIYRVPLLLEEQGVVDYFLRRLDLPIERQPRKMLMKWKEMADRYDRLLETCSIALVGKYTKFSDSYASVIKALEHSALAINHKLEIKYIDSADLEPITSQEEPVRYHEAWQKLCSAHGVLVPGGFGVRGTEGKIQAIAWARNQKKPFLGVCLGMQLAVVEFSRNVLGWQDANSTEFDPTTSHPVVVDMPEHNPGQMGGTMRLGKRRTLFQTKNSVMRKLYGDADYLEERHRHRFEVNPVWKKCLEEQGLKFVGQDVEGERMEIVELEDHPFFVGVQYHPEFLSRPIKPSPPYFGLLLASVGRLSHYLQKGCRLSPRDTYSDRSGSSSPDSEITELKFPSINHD
Type: biochemical
Description: Biological Example 1—Human CTPS1 Enzyme Inhibition
The enzyme inhibitory activities of compounds invented against the target of interest were determined using the ADP-Glo™ Max assay (Promega, UK). Assays for human CTPS1 were performed in 1× assay buffer containing 50 mM Tris, 10 mM MgCl2, 0.01% Tween-20, pH to 8.0 accordingly. Finally, immediately before use, L-cysteine was added to the 1× assay buffer to a final concentration of 2 mM. All reagents are from Sigma-Aldrich unless specified otherwise. Human full length active C-terminal FLAG-Hiss-tag CTPS1 (UniProtKB-P17812, CTPS[1-591]-[…]) was obtained from Proteros biostructures GmbH.
3× human CTPS1 protein was prepared in 1× assay buffer to the final working protein concentration required for the reaction. A 2 uL volume per well of 3× human CTPS1 protein was mixed with 2 uL per well of 3× test compound (compound prepared in 1× assay buffer to an appropriate final 3× compound concentration respective to the concentration response curve designed for the compounds under test) for 10 minutes at 25° C. The enzymatic reaction was then initiated by addition of a 2 uL per well volume of a pre-mixed substrate mix (UltraPure ATP from ADP-Glo™ Max kit (0.31 mM), GTP (0.034 mM), UTP (0.48 mM) and L-glutamine (0.186 mM)) and the mixture was incubated for an appropriate amount of time within the determined linear phase of the reaction at 25° C. under sealed plate conditions with constant agitation at 500 revolutions per minute (rpm). ADP-GIo™ Max reagent was added for 60 minutes (6 uL per well) and subsequently ADP-Glo™ Max development reagent was added for 60 minutes (12 uL per well) prior to signal detection in a microplate reader (EnVision® Multilabel Reader, Perkin Elmer). Following each reagent addition over the course of the assay, assay plates were pulse centrifuged for 30 seconds at 500 rpm.
In all cases, the enzyme converts ATP to ADP and the ADP-Glo™ Max reagent subsequently depletes any remaining endogenous ATP in the reaction system. The ADP-Glo™ Max detection reagent converts the ADP that has been enzymatically produced back into ATP and using ATP as a substrate together with luciferin for the enzyme luciferase, light is generated which produces a detectable luminescence. […] The percentage inhibition produced by each concentration of compound was calculated using the equation shown below: […]
Percentage inhibition was then plotted against compound concentration, and the 50% inhibitory concentration (IC50) was determined from the resultant concentration-response curve.

IC50	SMILES
10 to 21 µM	CC(C)(NC(=O)c1ccc(-c2ccccn2)nc1)c1csc(NS(=O)(=O)C2CC2)n1 [Example R27, N-(2-(2-(cyclopropanesuIfonamido)thiazol-4-yl)propan-2-yl)-[2,2′-bipyridine]-5-carboxamide]
< 0.1 µM	O=C(NC1(c2csc(NS(=O)(=O)C3CC3)n2)CC1)c1ccc(-c2cncc(C(F)(F)F)n2)cc1 [Example R84, N-(1-(2-(cyclopropanesulfonamido)thiazol-4-yl)cyclopropyl)-4-(6-(trifluoromethyl)pyrazin-2-yl)benzamide]
< 0.1 µM	O=C(NCc1csc(NS(=O)(=O)C2CC2)n1)c1ccc(-c2cncc(C(F)(F)F)n2)cc1F [Example R10, N-((2-(cyclopropanesulfonamido)thiazol-4-yl)methyl)-2-fluoro-4-(6-(trifluoromethyl)pyrazin-2-yl)benzamide]
0.1 to 1 µM	CCC(CC)(NC(=O)c1ccc(-c2cccnc2)cc1)c1csc(NS(=O)(=O)C2CC2)n1 [Example R18, N-(3-(2-(cyclopropanesulfonamido)thiazol-4-yl)pentan-3-yl)-4-(pyridin-3-yl)benzamide]
0.1 to 1 µM	CCC(NC(=O)c1ccc(-c2cncc(C)c2)cc1)c1csc(NS(=O)(=O)C2CC2)n1 (racemic) [Example R60, N-(1-(2-(cyclopropanesulfonamido)thiazol-4-yl)propyl)-4-(5-methylpyridin-3-yl)benzamide]
0.1 to 1 µM	CC(C)(NC(=O)c1ccc(-c2cccc(C(F)(F)F)c2)cc1)c1csc(NS(=O)(=O)C2CC2)n1 [Example R40, N-(2-(2-(cyclopropanesulfonamido)thiazol-4-yl)propan-2-yl)-3′-(trifluoromethyl)-[1,1′-biphenyl]-4-carboxamide]
0.1 to 1 µM	CCOc1cncc(-c2cnc(C(=O)NC(C)(C)c3csc(NS(=O)(=O)C4CC4)n3)c(F)c2)n1 [Example R23, N-(2-(2-(cyclopropanesuIfonamido)thiazol-4-yl)propan-2-yl)-5-(6-ethoxypyrazin-2-yl)-3-fluoropicolinamide]
0.1 to 1 µM	CCOc1cncc(-c2ccc(C(=O)NC(CCOC)c3csc(NS(=O)(=O)C4CC4)n3)c(F)c2)n1 (stereo not drawn) [Example R88, N-(1-(2-(cyclopropanesulfonamido)thiazol-4-yl)-3-methoxypropyl)-4-(6-ethoxypyrazin-2-yl)-2-fluorobenzamide]
0.1 to 1 µM	CC(C)(NC(=O)c1ccc(-c2cncc(Cl)c2)cc1F)c1csc(NS(=O)(=O)C2CC2)n1 [Example R30]
0.1 to 1 µM	CC(C)(NC(=O)c1ccc(-c2cncc(OCC(F)(F)F)n2)cc1F)c1csc(NS(=O)(=O)C2CC2)n1 [Example R44, N-(2-(2-(cyclopropanesuIfonamido)thiazol-4-yl)propan-2-yl)-2-fluoro-4-(6-(2,2,2-trifluoroethoxy)pyrazin-2-yl)benzamide]
0.1 to 1 µM	Cc1cc(-c2cncc(C(F)(F)F)n2)ccc1C(=O)NC(C)(C)c1nc(NS(=O)(=O)C2CC2)sc1C [Example R76, N-(2-(2-(cyclopropanesuIfonamido)-5-methylthiazol-4-yl)propan-2-yl)-2-methyl-4-(6-(trifluoromethyl)pyrazin-2-yl)benzamide]
0.1 to 1 µM	CCC(NC(=O)c1ccc(-c2cncc(C(F)(F)F)c2)cc1)c1csc(NS(=O)(=O)C2CC2)n1 (single isomer, unassigned) [Example R3, N-(1-(2-(cyclopropanesulfonamido)thiazol-4-yl)propyl)-4-(5-(trifluoromethyl)pyridin-3-yl)benzamide]
1 to 10 µM	O=C(NCc1csc(NS(=O)(=O)C2CC2)n1)c1ccc(-c2ccccc2)cc1 [Example R9, N-((2-(cyclopropanesulfonamido)thiazol-4-yl)methyl)-[1,1′-biphenyl]-4-carboxamide]
0.1 to 1 µM	CCC(NC(=O)c1ccc(-c2cncc(C(F)(F)F)c2)cc1)c1csc(NS(=O)(=O)C2CC2)n1 (racemic) [Example R2, N-(1-(2-(cyclopropanesulfonamido)thiazol-4-yl)propyl)-4-(5-(trifluoromethyl)pyridin-3-yl)benzamide]
0.1 to 1 µM	CCC(NC(=O)c1ccc(-c2cncc(F)c2)cc1)c1csc(NS(=O)(=O)C2CC2)n1 (racemic) [Example R59, N-(1-(2-(cyclopropanesulfonamido)thiazol-4-yl)propyl)-4-(5-fluoropyridin-3-yl)benzamide]
0.1 to 1 µM	CCC(NC(=O)c1ccc(-c2cccnc2)cc1)c1csc(NS(=O)(=O)C2CC2)n1 (racemic) [Example R61, N-(1-(2-(cyclopropanesulfonamido)thiazol-4-yl)propyl)-4-(pyridin-3-yl)benzamide]
0.1 to 1 µM	CC(C)(NC(=O)c1ccc(-c2cnccn2)cc1)c1csc(NS(=O)(=O)C2CC2)n1 [Example R58, N-(2-(2-(cyclopropanesulfonamido)thiazol-4-yl)propan-2-yl)-4-(pyrazin-2-yl)benzamide]
1 to 10 µM	CC(=O)c1cncc(-c2ccc(C(=O)NC(C)(C)c3csc(NS(=O)(=O)C4CC4)n3)cc2)c1 [Example R34]
< 0.1 µM	Cc1cncc(-c2ccc(C(=O)NC(C)(C)c3csc(NS(=O)(=O)C4CC4)n3)cc2)c1 [Example R37, N-(2-(2-(cyclopropanesulfonamido)thiazol-4-yl)propan-2-yl)-4-(5-methylpyridin-3-yl)benzamide]
0.1 to 1 µM	CC(C)(NC(=O)c1ccc(-c2cncc(OCC(F)(F)F)n2)cc1)c1csc(NS(=O)(=O)C2CC2)n1 [Example R57, N-(2-(2-(cyclopropanesuIfonamido)thiazol-4-yl)propan-2-yl)-4-(6-(2,2,2-trifluoroethoxy)pyrazin-2-yl)benzamide]
0.1 to 1 µM	CCc1cncc(-c2ccc(C(=O)NC(C)(C)c3csc(NS(=O)(=O)C4CC4)n3)c(F)c2)n1 [Example R41, N-(2-(2-(cyclopropanesuIfonamido)thiazol-4-yl)propan-2-yl)-4-(6-ethylpyrazin-2-yl)-2-fluorobenzamide]
0.1 to 1 µM	CC(C)(NC(=O)c1ccc(-c2cncc(F)c2)cc1F)c1csc(NS(=O)(=O)C2CC2)n1 [Example R31]
< 0.1 µM	CCC(CC)(NC(=O)c1ccc(-c2cncc(C(F)(F)F)n2)cc1)c1csc(NS(=O)(=O)C2CC2)n1 [Example R19, N-(3-(2-(cyclopropanesulfonamido)thiazol-4-yl)pentan-3-yl)-4-(6-(trifluoromethyl)pyrazin-2-yl)benzamide]
0.1 to 1 µM	CCOc1cncc(-c2ccc(C(=O)NC(C)(C)c3nc(NS(=O)(=O)C4CC4)sc3C)c(F)c2)n1 [Example R74, N-(2-(2-(cyclopropanesulfonamido)-5-methylthiazol-4-yl)propan-2-yl)-4-(6-ethoxypyrazin-2-yl)-2-fluorobenzamide]
0.1 to 1 µM	CCOc1cncc(-c2ccc(C(=O)NC(C)(C)c3csc(NS(=O)(=O)C4CC4)n3)nc2)n1 [Example R26, N-(2-(2-(cyclopropanesulfonamido)thiazol-4-yl)propan-2-yl)-5-(6-ethoxypyrazin-2-yl)picolinamide]
0.1 to 1 µM	CC(C)(NC(=O)c1ccc(-c2cncc(C(F)(F)F)n2)cc1)c1nc(NS(=O)(=O)C2CC2)sc1Cl [Example R79, N-(2-(5-chloro-2-(cyclopropanesulfonamido)thiazol-4-yl)propan-2-yl)-4-(6-(trifluoromethyl)pyrazin-2-yl)benzamide]
< 0.1 µM	CC(C)(NC(=O)c1ccc(-c2cncc(C(F)(F)F)c2)cc1F)c1csc(NS(=O)(=O)C2CC2)n1 [Example R29]
